The source of these data is patent US6716829B2, “Aldosterone antagonist and cyclooxygenase-2 inhibitor combination therapy to prevent or treat inflammation-related cardiovascular disorders” (Pharmacia Corporation, priority 2000, dated 2004).

The structures appear in SMILES notation.

The assay deals with marker proteins (osteopontin, ED-1, CD-3, ICAM-1, VCAM-1). In words: Assay C: immunohistochemistry of myocardial tissue (osteopontin, ED-1, CD-3, ICAM-1, VCAM-1). The assay is classed as in vivo, Male Sprague-Dawley rats. The following applies: aldosterone + salt treated rats; eplerenone 100 mg/kg/day. The method, then: The procedure of Assay B was expanded upon in a further study. […] Myocardial tissue from animals in each treatment group was examined after 7, 14, or 30 days of treatment. […] Lesions were preceded by the expression and progressive upregulation of proinflammatory molecules.
Potassium chloride supplementation was added to the saline solution in order to prevent the potential hypokalemia associated with aldosterone excess.
At the time of the surgery, an Alzet 2002 osmotic minipump (Alza Corp., Palo Alto, Calif.) containing either vehicle (9% ethanol/87% propylene glycol/4% dH2O) or 1.0 mg/mL d-aldosterone (Sigma Chemical, St. Louis, Mo.) was inserted subcutaneously at the nape of the neck. Aldosterone was administered at a dose of 0.75 µg/hour. […] Animals were sacrificed from each group (n=8-13) after 7, 14, or 30 days of treatment.
The equatorial regions of the heart were routinely processed into paraffin with an automated tissue processor (Hypercenter XP, Shandon/Lipshaw Inc., Pittsburgh, Pa.) and embedded into fresh paraffin apical side down (Shandon Embedding Center, Shandon/Lipshaw Inc.). Five and 10 µm sections were cut from each block of tissue using a Leica RM2035 rotary microtome (Leica Inc., Houston, Tex.) and mounted on Superfrost/Plus microscope slides (Fisher Scientific, Pittsburgh, Pa.). […]

As to `C[C@]12CCC(=O)C=C1CC[C@@H]1[C@@H]2[C@@H](O)C[C@]2(C=O)[C@@H](C(=O)CO)CC[C@@H]12` [Aldosterone], the “Staining in myocardial tissue for marker proteins (immunohistochemistry)” value is listed as “Significant expression of osteopontin”. `COC(=O)[C@@H]1CC2=CC(=O)CC[C@]2(C)[C@@]23O[C@@H]2C[C@@]2(C)[C@@H](CC[C@@]24CCC(=O)O4)[C@H]13` [Eplerenone]: the “Staining in myocardial tissue for marker proteins (immunohistochemistry)” value is “markedly blunted”.
